Measurements: patent publication US12263248B2, “Compounds and compositions for intracellular delivery of therapeutic agents” (ModernaTX, Inc., priority 2018, dated 2025)

Tests used:
[1] = system: IL-6, IP-10; assay: Cytokine induction in mice upon intravenous administration; type: in vivo; set-up: Cytokine induction IL-6 / Cytokine induction IP-10: unit not given here; settings: 0.5 mpk, 6 hours; for IL-6 induction: i.v., in words; for Cytokine induction IL-6 / Cytokine induction IP-10: intravenous
In short: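 IL-6 and IP-10 concentrations determined 6 hours after a single intravenous 0.5 mpk dose of lipid nanoparticle formulation in mice, with MC3 and PBS as comparators.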

[2] = system: luciferase (Luc) mRNA; assay: Luc expression in liver, lung, spleen and femur 6 hours after intravenous administration; type: in vivo; settings: mice, 0.5 mpk; for Total Flux Femur / Total Flux Liver / Total Flux Lung / Total Flux Spleen: intravenous
In short: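 LNP-formulated mRNA given IV to mice (n=3) at 0.5 mpk; at 6 h, bioluminescence imaged ex vivo 15 min after IP D-luciferin (15 mg/mL, 200 μL), organs imaged within 25 min. Values are total flux by region of interest.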

[3] = Particle size and polydispersity index of nanoparticle compositions (Zetasizer Nano ZS); type: physicochemical; settings: for PDI / Size (nm): Table 1A; for Size (nm): lipid:DSPC:cholesterol:PEG-DMG 50:10:38.5:1.5 mol %
In short: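 Values are size and PDI readings from a Zetasizer Nano ZS. Measurements are taken in 1×PBS; zeta potential, by contrast, uses 15 mM PBS.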

[4] = system: sC5b-9; assay: Complement activation in vitro (sC5b-9 levels); type: cell-based; settings: human cells contacted in vitro; for sC5b-9 levels relative to saline: in words
Method: Complement activation assists in the clearance of pathogens from an organism. As it is undesirable that a subject's body recognize a nanoparticle composition as a foreign invader, low complement system activation upon administration of such a composition is preferred. The complex sC5b-9 is a marker for the activation of the complement system. Thus, human cells were contacted in vitro with nanoparticle compositions according to Table 1A and were evaluated for sC5b-9 levels.

[5] = Apparent (surface) pKa of the LNP formulation (TNS assay); type: physicochemical
In short: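 Fluorescence of TNS probe added to LNP samples (mRNA 0.04 mg/mL) was read across 21 buffers of pH about 3-12, triplicate per pH. The inflection point of the sigmoidal fluorescence-vs-pH curve, […], gives apparent pKa; method validated in 1× PBS and Tris/sucrose buffer.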

[6] = Encapsulation efficiency of RNA (QUANT-IT RIBOGREEN RNA assay); type: physicochemical; settings: for EE (%): Table 1A
In short: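 RiboGreen fluorescence (ex ~480, em ~520 nm) compared between intact samples and Triton X-100-lysed samples after 15 min at 37 °C in TE buffer, pH 7.5. Percent free RNA is the blank-corrected intact/disrupted ratio.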

[7] = system: luciferase (Luc) mRNA; assay: Luc expression, whole body bioluminescence after intravenous administration to mice; type: in vivo; settings: for Total Flux 3 hours / Total Flux 6 hours / Total Flux 24 hours / flux at all timepoints measured: i.v., 0.5 mg/kg; for Total Flux 3 hours / Total Flux 6 hours / Total Flux 24 hours: Luc mRNA; for flux at all timepoints measured: 3, 6 and 24 hour, in words
In short: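 Bioluminescence, read as region-of-interest total flux at 3, 6 and 24 h, followed a single 0.5 mg/kg intravenous dose of Luc mRNA-loaded nanoparticles in mice (n=6). Luciferin substrate (200 μL, 15 mg/mL in PBS) was injected intraperitoneally into CD-1 mice 15 minutes ahead of each imaging point.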

[8] = Metabolite identification of Compound 18 in human plasma; type: in vitro ADME; set-up: key to Detection in incubation: +: Detected; ND: Not detected; settings: for Detection in incubation: Compound 18 (10 μM), human plasma
Method: Metabolite Identification: Compound 18 (10 μM) was incubated with human plasma (29.0 mg protein/incubation) in incubation mixtures (200 μL final incubation volume) that consisted of 50/50v/v neat plasma (undiluted)/substrate solution in 50 mM phosphate buffer, pH 7.4). The plasma was obtained from male and female donors and contained K2EDTA anticoagulant. Reactions were started by addition of the substrate solution to human plasma and were stopped at four designated time points (0, 30, 60 and 90 min) by the addition of 600 μL of stop reagent (acetonitrile). Stopped incubation samples were centrifuged (e.g., 10,000×g for 10 min at 10° C.) and the supernatant fractions were analyzed by LC-MS/MS to characterize the metabolites formed from compound 18. Additional incubations were performed with the positive control procaine (5 μM) to establish competency of the test system. Samples were analyzed by LC-MS/MS.

[9] = system: human hepatocytes; assay: Metabolite profiling of Compound 18 with human hepatocytes; type: in vitro ADME; set-up: key to Detection in incubation: +: Detected; ND: Not detected; settings: for Detection in incubation: Compound 18 (10 μM), human hepatocytes
Method: The results of metabolic profiling and characterization for compound 18 incubated with human hepatocytes or human plasma are summarized in Tables 41 and 42, respectively.

[10] = Lipid clearance from mouse tissues after weekly dosing; type: in vivo; settings: 0.25 mg/kg mRNA on days 1, 8, and 15
Method: Repeat dosing of mRNA in an MC3-based LNP for a therapeutic indication would be expected to lead to accumulation of MC3 in tissues, based on the measured half-life. Therefore it was investigated whether the favorable single dose pharmacokinetics of compound 18 were maintained with weekly dosing. Clearance of MC3 and compound 18 from multiple mouse tissues was measured after dosing 0.05 mg/kg mRNA on day 1, 8 and 15 (FIG. 30A). Following dosing with MC3 LNPs, lipid was detected in liver, spleen, plasma, kidney, heart and lung, with liver and spleen containing the largest concentrations (FIG. 30A, for full panel of tissues see FIG. 35A). […] Compound 18 was also detected in plasma, lung, and kidney, but not in heart (FIG. 35A).
In vitro metabolite identification studies using compound 18 were also performed. […] The disappearance of parent compound 18 and the primary metabolite, compound 166, from mouse liver tissue was measured after dosing 0.25 mg/kg mRNA on days 1, 8, and 15.

[11] = Lipid clearance: lipid level in mouse liver tissue (LC-MS/MS); type: in vivo
Method: Quantification of Lipid by LC-MS/MS: Liver samples were homogenized following addition of 19 eq. (w/v) of water (DF=20). Protein was precipitated and analyzed against calibration standards prepared in matching blank. Chromatographic separation and quantification was accomplished with a LC-MS/MS System. Samples were injected and separated via HPLC A triple-quadrupole MS/MS system operated in positive ion mode was used for signal detection.

[12] = Chemical stability of lipids in ethanol (lipid purity); type: physicochemical
Method: Ester linkages were previously reported to trigger metabolism by esterases in vivo. (See Fukami, T. et al. Drug Metab. Pharmacokinet. 2012, 27, 466-477, the content of which is incorporated by reference herein in its entirety). […] (See Maier M. A., Mol. Ther. 2013, 21, 1570-1578, the content of which is incorporated herein in its entirety) First, the chemical stability of the lipids was evaluated by measuring ethanol stability at room temperature and 37° C. (Table 39). […] LNPs formed with compound 138 were larger, with a surface pKa>7. […] Removal of one ester function (compound 136) afforded LNPs with improved physiochemical characteristics and lower LNP surface pKa.

[13] = system: hEPO mRNA; assay: Pretreatment study in Cynomolgus monkeys (standard MC3 formulation, hEPO mRNA); type: in vivo; settings: MC3 formulation once weekly for four weeks
Method: The effects of pretreatment to non-human primates were evaluated using a standard MC3 formulation including an mRNA encoding hEPO. Male monkeys were administered the nanoparticle composition once weekly for four weeks at a dose rate of 5 ml/kg/h and were pretreated with either methotrexate or dexamethasone.
As shown, in the absence of any pretreatment, maximal expression levels decreased nearly 70% over the course of the study.

[14] = lipid nanoparticle, ±SD within one assay run (Table 37)

SMILES | Cytokine induction IL-6 [1] | Cytokine induction IP-10 [1] | Total Flux Femur [2] | Total Flux Liver [2] | Total Flux Lung [2] | Total Flux Spleen [2] | PDI [3] | Size (nm) [3] [nm] | Fold increase in sC5b-9 levels versus saline [4] | pKa ([5]; Table 1A) | EE (%) [6] [%] | Total Flux 3 hours ([7]; mice) | Total Flux 6 hours ([7]; mice) | Total Flux 24 hours ([7]; mice) | further results
CCCCCCCCCCCCCCCCCCN(CCO)CCCCCCCC(=O)OC(CCCCCCCC)CCCCCCCC [Compound 1, Heptadecan-9-yl 8-((2-hydroxyethyl)(octadecyl)amino)octanoate] | 267.24 | 687.14 | 7.52E+05 | 4.02E+08 | 1.72E+06 | 4.27E+06 | 0.091 | 72.7 | 0.82 | 6.50 | 97.04 | 3.48E+09 | 3.40E+09 | 4.10E+08 | IL-6 induction [1]: highest; sC5b-9 levels relative to saline [4]: slightly decrease; Fold increase in total body Luc Flux relative to MC3 at 6 h ([7]; Table 3A, i.v. administration): 0.40
CCCCCCCCCOC(=O)CCCCCCCN(CCCCCCCC(=O)OC(CCCCCCCC)CCCCCCCC)CCOC(C)=O [Compound 9, Heptadecan-9-yl 8-((2-acetoxyethyl)(8-(nonyloxy)-8-oxooctyl)amino) octanoate] | 317.45 | 366.53 | 2.57E+04 | 4.30E+05 | 2.56E+04 | 5.51E+04 | 0.12 | 68.5 | 0.92 | 4.87 | 75.7 | 1.43E+08 | 3.46E+06 | 1.01E+06 | IL-6 induction [1]: highest; Flux in the spleen ([2]; i.v., in words): lowest; sC5b-9 levels relative to saline [4]: slightly decrease; flux at all timepoints measured ([7]; mice): significantly lower flux
CCCCCC/C=C\COC(=O)CCCCCCCN(CCO)CCCCCCCC(=O)OC/C=C\CCCCCC [Compound 139, Di((Z)-non-2-en-1-yl) 8,8′-((2-hydroxyethyl)azanediyl)dioctanoate] | 23.57 | 153.36 | 5.12E+04 | 8.27E+05 | 5.26E+04 | 2.10E+06 | 0.54 | 174.0 | 0.73 | 7.04 | 78.2 | 3.50E+07 | 1.17E+07 | 5.89E+05 | –
CCCCCCCCCCCOC(=O)CCCCCN(CCO)CCCCCC(=O)OCCCCCCCCCCC [Compound 141, Diundecyl 6,6′-((2-hydroxyethyl)azanediyl)dihexanoate] | 327.15 | 1072.04 | 2.86E+04 | 1.59E+05 | 3.85E+04 | 6.29E+04 | 0.99 | 91.3 | 1.81 | 7.47 | 94.1 | – | 1.21E+06 | 3.49E+05 | Flux in the liver ([2]; i.v., in words): lowest; Flux in the spleen ([2]; i.v., in words): lowest; flux at all timepoints measured ([7]; mice): significantly lower flux
CCCCCCCCC(CCCCCCCC)OC(=O)CCCCCCCN(CCO)CCCCCCCC(=O)O [Compound 166, 8-((8-(Heptadecan-9-yloxy)-8-oxooctyl)(2-hydroxyethyl)amino)octanoic acid] | – | – | – | – | – | – | – | – | – | – | – | – | – | – | Proposed biotransformation ([8]; Compound 18 (10 μM) with human plasma (29.0 mg protein/incubation)): Ester hydrolysis; Detection in incubation ([8]; 30 min): +; Detection in incubation ([8]; 60 min): +; Detection in incubation ([8]; 90 min): +; Proposed biotransformation ([9]; Compound 18 (10 μM) with human hepatocytes (1 million cells/mL)): Ester hydrolysis; Detection in incubation ([9]; 60 min): +; Detection in incubation ([9]; 120 min): +; Detection in incubation ([9]; 240 min): +; disappearance from mouse liver tissue [10]: rapid clearance
CCCCCCCCCOC(=O)CCCCCCCN(CCCCCCCC(=O)OC(CCCCCCCC)CCCCCCCC)CCCNC(=O)C(C)(C)COC [Compound 281, Heptadecan-9-yl 8-((3-(3-methoxy-2,2-dimethylpropanamido)propyl)(8-(nonyloxy)-8-oxooctyl)amino)octanoate] | – | – | – | – | – | – | – | – | – | – | – | – | – | – | PDI (Polydispersity index) [3, 14]: 0.14 ± 0.05; Size [3, 14]: 93.8 ± 5.6 nm; pKa [5, 14]: 6.79 ± 0.37; % Encapsulation [6, 14]: 96.9 ± 1.2%; luciferase activity relative to MC3 LNP control ([7]; mice, intravenous, 0.5 mg/kg (mRNA dose)): two-fold lower; % dose remaining Mouse liver tissue, 24 h ([11]; CD-1 mouse liver 24 h after 0.5 mg/kg bolus dose mRNA, n = 5 ± S.D.): 66 ± 22%; original dose remaining in liver tissue 24 hours post dose ([11]; mice, intravenous): 66%; Lipid Purity ([12]; t = 0): 95.17%; Lipid Purity ([12]; t = 96 h, 25° C.): 95.15%; Lipid Purity ([12]; t = 96 h, 37° C.): 96.47%
CN(Cc1cnc2nc(N)nc(N)c2n1)c1ccc(C(=O)N[C@@H](CCC(=O)O)C(=O)O)cc1 [Methotrexate, methotrexate] | – | – | – | – | – | – | – | – | – | – | – | – | – | – | effect of pretreatment on hEPO protein expression [13]: did not confer any particular beneficial effect
